Reference: US20160355530A1, “HEPATITIS C INHIBITORS AND USES THEREOF” (AbbVie Inc., priority 2010, published 2016)
Like-named read-outs stand apart in the source and are kept apart here.

What was measured:
[1] = target: T1, HCV NS5B polymerase 1a-H77 (Hepatitis C virus genotype 1a, UniProt P27958); experiment: biochemical; set-up: species or system HCV genotype 1a; conditions: enzyme, strain 1a H77; read-out: HCV Polymerase Strain 1a H77 IC50
T1 construct: six-histidine tag; made in house; host or cells: E. coli
T1 sequence (P27958 2421-2990): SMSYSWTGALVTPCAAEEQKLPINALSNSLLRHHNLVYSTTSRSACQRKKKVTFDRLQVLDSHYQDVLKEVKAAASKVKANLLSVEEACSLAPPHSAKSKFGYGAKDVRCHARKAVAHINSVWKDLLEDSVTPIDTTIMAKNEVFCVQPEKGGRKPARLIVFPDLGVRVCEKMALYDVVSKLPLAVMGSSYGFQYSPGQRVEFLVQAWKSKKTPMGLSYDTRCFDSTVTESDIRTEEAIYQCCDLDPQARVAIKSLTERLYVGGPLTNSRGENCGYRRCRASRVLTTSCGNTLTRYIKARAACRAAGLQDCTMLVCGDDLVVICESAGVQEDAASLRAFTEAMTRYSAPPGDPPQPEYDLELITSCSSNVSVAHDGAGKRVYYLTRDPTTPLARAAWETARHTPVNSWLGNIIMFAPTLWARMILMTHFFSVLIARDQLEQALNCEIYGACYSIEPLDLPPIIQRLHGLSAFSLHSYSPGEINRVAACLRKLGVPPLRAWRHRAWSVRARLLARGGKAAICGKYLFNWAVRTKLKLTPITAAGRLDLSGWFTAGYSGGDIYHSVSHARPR
How it was run: (§1)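 Recombinant NS5B (residues 1–570, His-tagged, E. coli-expressed) copied 5 nM of a 2.1 kb HCV 1b negative-strand 3′-end RNA template with 20 μM CTP, 20 μM ATP and 0.284 μM [3H]UTP for 3 h at 30 °C. Spermine-precipitated RNA was filter-captured and counted, and IC50 was fitted by nonlinear regression.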

[2] = target: T2, HCV NS5B polymerase 1a-H77-C316Y (Hepatitis C virus genotype 1a, UniProt P27958, C2736Y); experiment: biochemical; set-up: species or system HCV genotype 1a
T2 construct: six-histidine tag; made in house; host or cells: E. coli
T2 sequence (P27958 2421-2990 C2736Y): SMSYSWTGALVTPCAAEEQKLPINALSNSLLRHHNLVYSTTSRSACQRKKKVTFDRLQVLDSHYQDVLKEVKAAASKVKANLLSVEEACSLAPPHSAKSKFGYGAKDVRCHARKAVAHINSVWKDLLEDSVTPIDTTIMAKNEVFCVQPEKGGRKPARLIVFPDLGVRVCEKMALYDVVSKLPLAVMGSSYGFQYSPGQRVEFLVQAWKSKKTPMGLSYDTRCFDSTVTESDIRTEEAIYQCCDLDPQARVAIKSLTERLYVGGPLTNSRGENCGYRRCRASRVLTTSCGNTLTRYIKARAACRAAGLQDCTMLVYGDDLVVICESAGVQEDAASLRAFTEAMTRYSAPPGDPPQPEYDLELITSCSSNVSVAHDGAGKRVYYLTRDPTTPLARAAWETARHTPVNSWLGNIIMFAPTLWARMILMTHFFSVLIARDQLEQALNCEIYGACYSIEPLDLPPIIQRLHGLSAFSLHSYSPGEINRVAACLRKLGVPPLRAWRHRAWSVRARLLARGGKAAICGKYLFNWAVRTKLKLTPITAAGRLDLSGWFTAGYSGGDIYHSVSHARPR
How it was run: as §1

[3] = tested on: HCV NS5B polymerase 1a-H77-C316Y; experiment: biochemical; set-up: species or system HCV genotype 1a; conditions: ratio of enzyme IC50s, 1a H77-C316Y / 1a H77
How it was run: as §1

[4] = target: T3, HCV NS5B polymerase 1b BK strain (Hepatitis C virus genotype 1b, UniProt P26663); experiment: HCV NS5B polymerase enzymatic inhibition assay, strain 1b BK; format: biochemical; conditions: enzyme, strain 1b BK; read-out: HCV Polymerase Strain 1b BK IC50
T3 construct: six-histidine tag; made in house; host or cells: E. coli
T3 sequence (P26663 2420-2989): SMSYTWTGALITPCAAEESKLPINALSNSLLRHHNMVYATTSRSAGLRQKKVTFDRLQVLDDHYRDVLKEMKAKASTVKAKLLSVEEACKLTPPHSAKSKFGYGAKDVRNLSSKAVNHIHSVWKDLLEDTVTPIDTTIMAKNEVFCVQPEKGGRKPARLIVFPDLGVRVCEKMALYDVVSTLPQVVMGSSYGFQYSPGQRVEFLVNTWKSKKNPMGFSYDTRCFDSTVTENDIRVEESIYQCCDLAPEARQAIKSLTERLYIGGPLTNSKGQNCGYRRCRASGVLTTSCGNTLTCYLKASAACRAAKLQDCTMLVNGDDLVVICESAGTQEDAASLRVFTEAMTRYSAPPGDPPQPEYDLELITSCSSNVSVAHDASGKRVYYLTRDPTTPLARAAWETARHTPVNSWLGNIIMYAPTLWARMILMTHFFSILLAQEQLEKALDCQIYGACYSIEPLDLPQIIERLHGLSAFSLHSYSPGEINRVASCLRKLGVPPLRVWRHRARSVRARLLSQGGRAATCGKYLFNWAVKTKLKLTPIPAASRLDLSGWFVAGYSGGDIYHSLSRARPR
How it was run: as §1

[5] = tested on: HCV 1a-H77 subgenomic replicon; experiment: microbe, parasite or virus in culture; format: cell-based, HCV genotype 1a; conditions: Hepatitis C virus, stable replicon
[6] = tested on: HCV 1b-BB7 subgenomic replicon; experiment: microbe, parasite or virus in culture; format: cell-based, HCV genotype 1b; conditions: Hepatitis C virus, stable replicon
[7] = tested on: chimeric replicon with 2a-J6CF-derived NS5B; experiment: microbe, parasite or virus in culture; format: cell-based, HCV genotype 2a; conditions: Hepatitis C virus, read-out: 2a chimera 5% FBS EC50
[8] = tested on: chimeric replicon with genotype 2b NS5B; experiment: microbe, parasite or virus in culture; format: cell-based, HCV genotype 2b; conditions: Hepatitis C virus, read-out: 2b chimera 5% FBS EC50
[9] = tested on: chimeric replicon with genotype 3a NS5B; experiment: microbe, parasite or virus in culture; format: cell-based, HCV genotype 3a; conditions: Hepatitis C virus, read-out: 3a chimera 5% FBS EC50
[10] = tested on: chimeric replicon with genotype 4a NS5B; experiment: microbe, parasite or virus in culture; format: cell-based, HCV genotype 4a; conditions: Hepatitis C virus, read-out: 4a chimera 5% FBS EC50
[11] = tested on: HCV 1a-H77 transient subgenomic replicon in Huh-7 derived cell line; experiment: microbe, parasite or virus in culture; format: cell-based, HCV genotype 1a; conditions: Hepatitis C virus, Huh-7; transient replicon, 5% FBS; read-out: Transient Replicon 1a H77 5% FBS EC50
Method: (§2) In addition to the stable replicon inhibition assays, transient replicon assays were performed. Transient replicons are identical to the 1a-H77 and 1a-H77-C316Y constructs, except they lack the Neo gene, making it impossible to establish stable cell lines. A T7 Megascript RNA synthesis kit (Ambion) was used to transcribe the HCV subgenomic RNA. The HCV RNA was then precipitated with lithium chloride according to manufacturer's instructions. The HCV subgenomic replicon RNA was transfected via electroporation into a Huh-7 derived cell line as described (Middleton T, et al. J. Virological Methods 2007; 145(2): 137-145). Transfected cells were diluted and plated in 96 well plates at 5×10^3 cells per well in DMEM. Four hours post-transfection, the wells from one plate were harvested for luciferase measurement. This plate provides a measure of the amount of translatable input RNA, and therefore transfection efficiency. To the wells of the remaining plates, a 3-fold dilution series of test compounds was added in DMSO (0.5% DMSO final concentration), and plates were incubated at 37° C., 5% CO2 in a humidified incubator for 4 days. After this period, the media was removed and the plates were washed with 100 μL phosphate-buffered saline per well. For the luciferase assay, 30 μL of Passive Lysis buffer (Promega) was added to each well, and then the plates were incubated for 15 minutes with rocking to lyse the cells. Luciferin solution (100 μL, Promega) was added to each well, and luciferase activity was measured with a Victor II luminometer (Perkin-Elmer). The EC50 values were calculated using GraphPad Prism 4 software.

[12] = tested on: HCV 1a-H77-C316Y transient subgenomic replicon in Huh-7 derived cell line; experiment: microbe, parasite or virus in culture; format: cell-based, HCV genotype 1a; conditions: for EC50: Hepatitis C virus, Huh-7, read-out: Transient Replicon 1a H77-C316Y 5% FBS EC50; for Transient Replicon Fold Resistance C316Y/1a: ratio of transient replicon EC50s, C316Y / 1a H77
Method: as §2

[13] = 5% FBS, absence of human plasma, read-out: Stable Replicon 1a H77 5% FBS EC50
[14] = strain 1a H77, 5% FBS + 40% human plasma, read-out: 1a H77 5% FBS + 40% Human Plasma EC50
[15] = strain 1a H77, 5% FBS, no human plasma, read-out: 1a H77 5% FBS EC50
[16] = strain 1a H77, 5% FBS, read-out: 1a H77 5% FBS EC50
[17] = strain 1b BB7, 5% FBS + 40% human plasma, read-out: 1b BB7 5% FBS + 40% Human Plasma EC50
[18] = strain 1b BB7, 5% FBS, no human plasma, read-out: 1b BB7 5% FBS EC50
[19] = strain 1b BB7, 5% FBS, read-out: 1b BB7 5% FBS EC50

Row | SMILES | IC50 [1] [nM] | IC50 [2] [nM] | C316Y/1a Fold Resistance [3] [fold] | IC50 [4] [nM] | EC50 [5, 13] [nM] | EC50 [5, 14] [nM] | EC50 [5, 15] [nM] | EC50 [5, 16] [nM] | EC50 [6, 17] [nM] | EC50 [6, 18] [nM] | EC50 [6, 19] [nM] | EC50 [7] [nM] | EC50 [8] [nM] | EC50 [9] [nM] | EC50 [10] [nM] | EC50 [11] [nM] | EC50 [12] [nM] | Transient Replicon Fold Resistance C316Y/1a [12] [fold]
1 | CC(C)CN(c1cc2oc(-c3ccc(F)cc3)c(-c3ncc[nH]3)c2cc1C1CC1)S(C)(=O)=O [Example 66, N-[5-cyclopropyl-2-(4-fluorophenyl)-3-(1H-imidazol-2-yl)-1-benzofuran-6-yl]-N-isobutylmethanesulfonamide] | 5.9 | 901 | 152 | 70 | 59.8 | 683 | 59.8 | 59.8 | 569 | 56.4 | 56.4 | 215 | 293 | 83.9 | 318 | 68.9 |  | 
2 | CS(=O)(=O)Nc1cc2oc(-c3ccc(F)cc3)c(-c3ncc[nH]3)c2cc1C1CC1 [Example 1, N-[5-cyclopropyl-2-(4-fluorophenyl)-3-(1H-imidazol-2-yl)-1-benzofuran-6-yl]methanesulfonamide] | 5.9 | 1800 | 304 | 87 | 207 | 4710 | 207 | 207 | 281 | 18.2 | 18.2 | 223 | 219 | 13 | 242 | 192 |  | 
3 | CS(=O)(=O)N(CCCC(=O)O)c1cc2oc(-c3ccc(F)cc3)c(C3=NOCCN3)c2cc1C1CC1 [Example 135, 4-{[5-cyclopropyl-3-(5,6-dihydro-4H-1,2,4-oxadiazin-3-yl)-2-(4-fluorophenyl)-1-benzofuran-6-yl](methylsulfonyl)amino}butanoic acid] | 3.9 | 41 | 11 | 28 | 969 | 7910 | 969 | 969 | 5520 | 783 | 783 |  |  |  |  | 372 | 3040 | 8
4 | CCCN(c1cc2oc(-c3ccc(F)cc3)c(-c3ncc[nH]3)c2cc1C1CC1)S(C)(=O)=O [Example 64, N-[5-cyclopropyl-2-(4-fluorophenyl)-3-(1H-imidazol-2-yl)-1-benzofuran-6-yl]-N-propylmethanesulfonamide] | 5.3 | 180 | 34 | 29 | 24.3 | 267 | 24.3 | 24.3 | 110 | 12 | 12 | 57.9 | 67.4 | 1.6 | 125 | 20.2 |  | 
5 | CC(C)CCN(c1cc2oc(-c3ccc(F)cc3)c(C3=NOC(C)N3)c2cc1C1CC1)S(C)(=O)=O (stereo not shown) [Example 14, N-[5-cyclopropyl-2-(4-fluorophenyl)-3-(5-methyl-4,5-dihydro-1,2,4-oxadiazol-3-yl)-1-benzofuran-6-yl]-N-(3-methylbutyl)methanesulfonamide] | 8.5 | 70 | 8 | 35 | 24.3 | 805 | 24.3 | 24.3 | 1060 | 93.5 | 93.5 |  |  |  |  | 28.1 | 152 | 5
6 | CCCCCN(c1cc2oc(-c3ccc(F)cc3)c(-c3ncc[nH]3)c2cc1C1CC1)S(C)(=O)=O [Example 70, N-[5-cyclopropyl-2-(4-fluorophenyl)-3-(1H-imidazol-2-yl)-1-benzofuran-6-yl]-N-pentylmethanesulfonamide] | 8.5 | 69 | 8 | 24 | 41.8 | 641 | 41.8 | 41.8 | 298 | 35.6 | 35.6 | 173 | 234 | 26.8 | 285 |  |  | 
7 | CC(=O)CCCN(c1cc2oc(-c3ccc(F)cc3)c(-c3ncc[nH]3)c2cc1C1CC1)S(C)(=O)=O [Example 73, N-[5-cyclopropyl-2-(4-fluorophenyl)-3-(1H-imidazol-2-yl)-1-benzofuran-6-yl]-N-(4-oxopentyl)methanesulfonamide] | 3.5 | 53 | 15 | 15 | 7.9 | 72 | 7.9 | 7.9 | 55 | 4.9 | 4.9 | 27 | 21.9 | 2.9 | 42.5 |  |  | 
8 | CS(=O)(=O)N(CC1CC1(F)F)c1cc2oc(-c3ccc(F)cc3)c(-c3ncc[nH]3)c2cc1C1CC1 (stereo not shown) [Example 55, N-[5-cyclopropyl-2-(4-fluorophenyl)-3-(1H-imidazol-2-yl)-1-benzofuran-6-yl]-N-[(2,2-difluorocyclopropyl)methyl]methanesulfonamide] | 5 | 366 | 73 | 28 | 68 | 1020 | 68 | 68 | 363 | 37 | 37 | 184 | 348 | 18 | 557 |  |  | 
9 | CC[S+]([O-])CCCN(c1cc2oc(-c3ccc(F)cc3)c(C3=NOCCN3)c2cc1C1CC1)S(C)(=O)=O (stereo not shown) [Example 144, N-[5-cyclopropyl-3-(5,6-dihydro-4H-1,2,4-oxadiazin-3-yl)-2-(4-fluorophenyl)-1-benzofuran-6-yl]-N-[3-(ethylsulfinyl)propyl]methanesulfonamide] | 7 | 89 | 13 | 92 | 39 | 254 | 39 | 39 | 333 | 37 | 37 | 380 | 419 | 62 | 380 |  |  | 
